Article PMC7150468, “A2AR Antagonism with DZD2269 Augments Antitumor Efficacy of Irradiation in Murine Model” (Journal of Cancer, 2020)

Target: T1, adenosine 2A receptor (A2AR) (Mus musculus, UniProt Q60613)
T1 construct: gene Adora2a
Assay: inhibition of NECA ([…])-stimulated CREB phosphorylation in mouse CD8+ T cells, flow cytometry
Format: cell-based

T1 sequence (Q60613 whole entry): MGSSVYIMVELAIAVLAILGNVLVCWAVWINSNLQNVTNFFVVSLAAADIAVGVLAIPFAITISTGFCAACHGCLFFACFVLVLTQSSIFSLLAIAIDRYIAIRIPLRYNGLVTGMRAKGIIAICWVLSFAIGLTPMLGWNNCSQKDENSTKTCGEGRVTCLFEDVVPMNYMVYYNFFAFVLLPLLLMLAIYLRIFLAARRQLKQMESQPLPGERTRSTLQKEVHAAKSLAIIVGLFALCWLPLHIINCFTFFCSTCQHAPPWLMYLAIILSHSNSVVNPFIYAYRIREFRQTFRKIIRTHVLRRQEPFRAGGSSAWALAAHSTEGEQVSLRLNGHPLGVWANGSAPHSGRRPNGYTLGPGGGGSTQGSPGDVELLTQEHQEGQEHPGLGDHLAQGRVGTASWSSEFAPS

DZD2269 gave an IC50 of roughly 3 nM.
